Tests used:
[1] = target: Glycogen synthase kinase-3 beta (Homo sapiens) (UniProt P49841); experiment: Inhibition of human GSK3B at 0.1 uM relative to control
[2] = system: Receptor-type tyrosine-protein kinase FLT3 (Homo sapiens), P36888 [UNDEFINED MUTATION]; settings: MOLM-13
Description: Inhibition of FLT3 ITD heterozygous mutant in human MOLM-13 cells assessed as cell growth inhibition after 72 hrs by MTS assay

[3] = target: AMP-activated protein kinase, AMPK (Homo sapiens) (UniProt P54646+O43741+P54619+Q9UGJ0+Q9Y478+Q13131+Q9UGI9); experiment: Inhibition of human AMPK A1/B1/G1 at 0.1 uM relative to control; assay type: protein-complex assay
[4] = Plasma clearance in Sprague-Dawley rat at 2 mg/kg, iv; assay type: ADME, organism-based
[5] = system: RAF proto-oncogene serine/threonine-protein kinase (Homo sapiens), P04049 [Y340D,Y341D]; experiment: Inhibition of human RAF1 Y340D/Y341D double mutant at 0.1 uM relative to control
Chain of RAF proto-oncogene serine/threonine-protein kinase (Homo sapiens), P04049 [Y340D,Y341D] (P04049 whole entry Y340D/Y341D): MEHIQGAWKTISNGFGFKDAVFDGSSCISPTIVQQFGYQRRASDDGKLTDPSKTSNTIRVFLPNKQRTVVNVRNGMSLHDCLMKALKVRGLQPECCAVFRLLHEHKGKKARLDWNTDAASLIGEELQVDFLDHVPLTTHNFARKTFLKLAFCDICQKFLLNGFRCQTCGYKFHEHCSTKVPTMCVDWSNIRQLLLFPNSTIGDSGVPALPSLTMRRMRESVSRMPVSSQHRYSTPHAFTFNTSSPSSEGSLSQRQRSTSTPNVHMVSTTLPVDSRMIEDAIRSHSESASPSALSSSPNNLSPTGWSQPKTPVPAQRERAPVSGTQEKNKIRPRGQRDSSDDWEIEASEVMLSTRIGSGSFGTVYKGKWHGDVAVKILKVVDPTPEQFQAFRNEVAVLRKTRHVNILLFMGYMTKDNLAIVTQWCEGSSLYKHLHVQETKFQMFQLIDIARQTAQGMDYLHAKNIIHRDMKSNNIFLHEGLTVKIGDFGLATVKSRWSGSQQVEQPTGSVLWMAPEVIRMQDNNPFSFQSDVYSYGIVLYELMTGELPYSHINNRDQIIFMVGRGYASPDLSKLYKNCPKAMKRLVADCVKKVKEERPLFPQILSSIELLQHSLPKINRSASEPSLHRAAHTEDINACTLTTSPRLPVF

[6] = target: High affinity nerve growth factor receptor (Homo sapiens) (UniProt P04629); experiment: Inhibition of human NTRK1 at 0.1 uM relative to control
[7] = Plasma clearance in ICR mouse at 2 mg/kg, iv; assay type: ADME, organism-based
[8] = target: Hepatocyte growth factor receptor (Homo sapiens) (UniProt P08581); experiment: Inhibition of human MET at 0.1 uM relative to control
[9] = target: Serine/threonine-protein kinase MRCK alpha (Homo sapiens) (UniProt Q5VT25); experiment: Inhibition of human MRCKA at 0.1 uM relative to control
[10] = target: Serine/threonine-protein kinase Sgk3 (Homo sapiens) (UniProt Q96BR1); experiment: Inhibition of human SGKL at 0.1 uM relative to control
[11] = target: Ribosomal protein S6 kinase alpha-5 (Homo sapiens) (UniProt O75582); experiment: Inhibition of human MSK1 at 0.1 uM relative to control
[12] = target: Macrophage colony-stimulating factor 1 receptor (Homo sapiens) (UniProt P07333); experiment: Inhibition of human CSF1R at 0.1 uM relative to control
[13] = target: Serine/threonine-protein kinase Sgk1 (Homo sapiens) (UniProt O00141); experiment: Inhibition of human SGK1 at 0.1 uM relative to control
[14] = target: Dual specificity mitogen-activated protein kinase kinase 1 (Homo sapiens) (UniProt Q02750); experiment: Inhibition of human MEK1 at 0.1 uM relative to control
[15] = target: Serine/threonine-protein kinase Chk2 (Homo sapiens) (UniProt O96017); experiment: Inhibition of human CHK2 at 0.1 uM relative to control
Chain of Serine/threonine-protein kinase Chk2 (Homo sapiens) (O96017 whole entry): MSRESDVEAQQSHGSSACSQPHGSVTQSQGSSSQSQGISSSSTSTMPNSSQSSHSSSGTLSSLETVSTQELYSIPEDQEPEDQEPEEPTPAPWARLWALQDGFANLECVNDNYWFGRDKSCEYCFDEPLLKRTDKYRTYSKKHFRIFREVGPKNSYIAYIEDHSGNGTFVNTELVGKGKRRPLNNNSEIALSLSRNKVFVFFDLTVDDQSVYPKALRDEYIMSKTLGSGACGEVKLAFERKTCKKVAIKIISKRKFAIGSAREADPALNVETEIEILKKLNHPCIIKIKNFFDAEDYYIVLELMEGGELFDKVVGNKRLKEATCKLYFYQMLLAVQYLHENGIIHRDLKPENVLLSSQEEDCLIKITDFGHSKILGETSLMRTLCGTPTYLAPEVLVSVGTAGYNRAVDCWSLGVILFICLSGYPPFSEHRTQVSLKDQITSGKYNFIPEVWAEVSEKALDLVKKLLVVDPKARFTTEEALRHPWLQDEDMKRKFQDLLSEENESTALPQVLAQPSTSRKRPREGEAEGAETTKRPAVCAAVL

[16] = Oral bioavailability in ICR mouse at 10 mg/kg; assay type: ADME, organism-based; settings: in vivo
[17] = Volume of distribution at steady state in ICR mouse at 2 mg/kg, iv; assay type: ADME, organism-based; settings: in vivo, read-out: Vdss
[18] = target: Receptor-type tyrosine-protein kinase FLT3 (Homo sapiens, UniProt P36888, D835Y); experiment: Inhibition of FLT3 ITD D835Y mutant (unknown origin) phosphorylation expressed in HEK293T cells preincubated for 1 hr followed by FLT3 ligand addition for 5 mins by Western blot analysis; assay type: cell-based, HEK-293T
[19] = system: Receptor-type tyrosine-protein kinase FLT3 (Homo sapiens), P36888 [D835V]
[20] = target: Dual specificity protein kinase CLK2 (Homo sapiens) (UniProt P49760); experiment: Inhibition of human CLK2 at 0.1 uM relative to control
Chain of Dual specificity protein kinase CLK2 (Homo sapiens) (P49760 whole entry, looked up): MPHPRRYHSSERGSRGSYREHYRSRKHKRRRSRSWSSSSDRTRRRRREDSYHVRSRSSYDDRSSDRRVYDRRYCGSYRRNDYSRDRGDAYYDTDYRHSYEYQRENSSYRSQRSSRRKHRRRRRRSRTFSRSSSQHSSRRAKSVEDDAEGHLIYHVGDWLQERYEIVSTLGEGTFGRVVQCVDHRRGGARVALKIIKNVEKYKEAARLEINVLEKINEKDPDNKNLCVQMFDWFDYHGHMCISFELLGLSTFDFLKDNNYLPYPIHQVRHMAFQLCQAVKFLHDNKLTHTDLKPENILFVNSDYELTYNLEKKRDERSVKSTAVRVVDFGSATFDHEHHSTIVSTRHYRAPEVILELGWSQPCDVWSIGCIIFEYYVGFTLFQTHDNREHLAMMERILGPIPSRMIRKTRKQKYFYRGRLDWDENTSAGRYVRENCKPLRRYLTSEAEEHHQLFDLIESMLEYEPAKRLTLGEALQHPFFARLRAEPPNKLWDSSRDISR

animal or person = settings: Mus musculus, 32D, po, read-out: TGI
[21] = target: Aurora kinase B (Homo sapiens) (UniProt Q96GD4); experiment: Inhibition of human AURKB at 0.1 uM relative to control
[22] = system: Receptor-type tyrosine-protein kinase FLT3 (Homo sapiens), P36888 [F691L]
[23] = Cmax in Sprague-Dawley rat at 10 mg/kg, po; assay type: ADME, organism-based; set-up: dose 10 mg/kg, route oral; settings: in vivo
[24] = target: Tyrosine-protein kinase Lck (Homo sapiens) (UniProt P06239); experiment: Inhibition of human LCK at 0.1 uM relative to control
[25] = system: Platelet-derived growth factor receptor alpha (Homo sapiens), P16234 [T674I]; experiment: Inhibition of human PDGFRA T674I mutant at 0.1 uM relative to control
Chain of Platelet-derived growth factor receptor alpha (Homo sapiens), P16234 [T674I] (P16234 whole entry T674I): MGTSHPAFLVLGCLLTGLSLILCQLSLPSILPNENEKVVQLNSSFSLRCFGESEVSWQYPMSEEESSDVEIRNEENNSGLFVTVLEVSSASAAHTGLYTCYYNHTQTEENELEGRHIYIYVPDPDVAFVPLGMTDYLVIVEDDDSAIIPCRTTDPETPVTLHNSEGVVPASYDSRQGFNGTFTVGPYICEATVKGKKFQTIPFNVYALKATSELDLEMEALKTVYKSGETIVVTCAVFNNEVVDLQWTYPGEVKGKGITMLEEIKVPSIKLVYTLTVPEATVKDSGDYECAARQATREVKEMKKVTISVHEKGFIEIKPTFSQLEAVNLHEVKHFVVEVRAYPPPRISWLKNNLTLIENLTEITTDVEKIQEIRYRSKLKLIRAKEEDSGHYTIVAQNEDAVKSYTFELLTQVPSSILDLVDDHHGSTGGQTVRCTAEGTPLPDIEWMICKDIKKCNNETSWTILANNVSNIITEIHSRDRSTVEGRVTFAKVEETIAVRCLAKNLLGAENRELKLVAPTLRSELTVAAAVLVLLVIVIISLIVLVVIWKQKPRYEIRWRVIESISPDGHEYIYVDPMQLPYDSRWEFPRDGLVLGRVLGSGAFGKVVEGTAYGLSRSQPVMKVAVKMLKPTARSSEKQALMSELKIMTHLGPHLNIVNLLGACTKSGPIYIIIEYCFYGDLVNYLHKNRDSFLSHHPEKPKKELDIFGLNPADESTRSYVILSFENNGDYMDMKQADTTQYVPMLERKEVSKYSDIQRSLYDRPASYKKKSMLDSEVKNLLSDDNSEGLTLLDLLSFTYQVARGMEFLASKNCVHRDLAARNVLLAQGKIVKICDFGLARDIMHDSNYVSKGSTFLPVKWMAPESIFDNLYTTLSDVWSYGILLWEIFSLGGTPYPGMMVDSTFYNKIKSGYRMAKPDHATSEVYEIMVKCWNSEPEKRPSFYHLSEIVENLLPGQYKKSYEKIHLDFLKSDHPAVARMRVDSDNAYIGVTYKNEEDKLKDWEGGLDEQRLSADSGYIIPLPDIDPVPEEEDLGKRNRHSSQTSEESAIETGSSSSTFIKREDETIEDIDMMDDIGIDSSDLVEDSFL

[26] = target: Vascular endothelial growth factor receptor 1 (Homo sapiens) (UniProt P17948); experiment: Inhibition of human FLT1 at 0.1 uM relative to control
Chain of Vascular endothelial growth factor receptor 1 (Homo sapiens) (P17948 whole entry): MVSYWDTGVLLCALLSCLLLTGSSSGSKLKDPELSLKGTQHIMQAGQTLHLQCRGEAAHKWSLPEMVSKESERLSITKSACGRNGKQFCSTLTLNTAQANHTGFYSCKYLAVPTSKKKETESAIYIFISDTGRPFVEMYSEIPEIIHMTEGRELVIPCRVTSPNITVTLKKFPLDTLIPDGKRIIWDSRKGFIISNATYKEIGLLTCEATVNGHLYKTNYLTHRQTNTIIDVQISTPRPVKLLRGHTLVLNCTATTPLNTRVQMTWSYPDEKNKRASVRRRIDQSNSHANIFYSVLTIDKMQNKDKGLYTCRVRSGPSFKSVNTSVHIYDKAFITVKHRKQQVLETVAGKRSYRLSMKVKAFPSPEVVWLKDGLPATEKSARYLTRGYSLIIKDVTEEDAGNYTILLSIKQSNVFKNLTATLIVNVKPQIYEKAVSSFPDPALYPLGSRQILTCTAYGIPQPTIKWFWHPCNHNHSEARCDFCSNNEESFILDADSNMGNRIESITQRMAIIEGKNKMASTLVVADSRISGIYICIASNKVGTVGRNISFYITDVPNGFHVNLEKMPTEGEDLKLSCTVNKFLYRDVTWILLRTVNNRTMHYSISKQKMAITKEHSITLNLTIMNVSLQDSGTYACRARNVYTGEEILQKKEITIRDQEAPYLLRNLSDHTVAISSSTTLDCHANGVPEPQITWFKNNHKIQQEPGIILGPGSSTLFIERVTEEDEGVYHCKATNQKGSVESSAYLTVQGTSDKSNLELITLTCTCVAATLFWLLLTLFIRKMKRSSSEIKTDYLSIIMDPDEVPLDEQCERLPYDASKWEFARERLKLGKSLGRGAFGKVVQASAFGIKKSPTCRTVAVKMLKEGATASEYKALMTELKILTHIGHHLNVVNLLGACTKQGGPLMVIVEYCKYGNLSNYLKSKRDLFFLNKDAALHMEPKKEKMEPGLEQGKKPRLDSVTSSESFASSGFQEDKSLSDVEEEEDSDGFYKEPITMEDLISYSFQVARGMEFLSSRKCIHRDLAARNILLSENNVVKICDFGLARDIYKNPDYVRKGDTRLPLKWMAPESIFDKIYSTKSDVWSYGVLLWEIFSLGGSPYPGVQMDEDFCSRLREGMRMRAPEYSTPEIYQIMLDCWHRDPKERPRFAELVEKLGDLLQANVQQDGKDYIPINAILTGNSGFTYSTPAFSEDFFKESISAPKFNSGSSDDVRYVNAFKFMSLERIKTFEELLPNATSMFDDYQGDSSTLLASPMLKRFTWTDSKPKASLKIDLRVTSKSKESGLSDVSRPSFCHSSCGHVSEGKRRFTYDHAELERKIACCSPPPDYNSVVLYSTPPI

[27] = target: Macrophage-stimulating protein receptor (Homo sapiens) (UniProt Q04912); experiment: Inhibition of human RON at 0.1 uM relative to control
[28] = target: Mitogen-activated protein kinase 14 (Homo sapiens) (UniProt Q16539); experiment: Inhibition of human MAPK14 at 0.1 uM relative to control
[29] = target: Mast/stem cell growth factor receptor Kit (Homo sapiens) (UniProt P10721); experiment: Inhibition of human KIT at 0.1 uM relative to control
Chain of Mast/stem cell growth factor receptor Kit (Homo sapiens) (P10721 whole entry): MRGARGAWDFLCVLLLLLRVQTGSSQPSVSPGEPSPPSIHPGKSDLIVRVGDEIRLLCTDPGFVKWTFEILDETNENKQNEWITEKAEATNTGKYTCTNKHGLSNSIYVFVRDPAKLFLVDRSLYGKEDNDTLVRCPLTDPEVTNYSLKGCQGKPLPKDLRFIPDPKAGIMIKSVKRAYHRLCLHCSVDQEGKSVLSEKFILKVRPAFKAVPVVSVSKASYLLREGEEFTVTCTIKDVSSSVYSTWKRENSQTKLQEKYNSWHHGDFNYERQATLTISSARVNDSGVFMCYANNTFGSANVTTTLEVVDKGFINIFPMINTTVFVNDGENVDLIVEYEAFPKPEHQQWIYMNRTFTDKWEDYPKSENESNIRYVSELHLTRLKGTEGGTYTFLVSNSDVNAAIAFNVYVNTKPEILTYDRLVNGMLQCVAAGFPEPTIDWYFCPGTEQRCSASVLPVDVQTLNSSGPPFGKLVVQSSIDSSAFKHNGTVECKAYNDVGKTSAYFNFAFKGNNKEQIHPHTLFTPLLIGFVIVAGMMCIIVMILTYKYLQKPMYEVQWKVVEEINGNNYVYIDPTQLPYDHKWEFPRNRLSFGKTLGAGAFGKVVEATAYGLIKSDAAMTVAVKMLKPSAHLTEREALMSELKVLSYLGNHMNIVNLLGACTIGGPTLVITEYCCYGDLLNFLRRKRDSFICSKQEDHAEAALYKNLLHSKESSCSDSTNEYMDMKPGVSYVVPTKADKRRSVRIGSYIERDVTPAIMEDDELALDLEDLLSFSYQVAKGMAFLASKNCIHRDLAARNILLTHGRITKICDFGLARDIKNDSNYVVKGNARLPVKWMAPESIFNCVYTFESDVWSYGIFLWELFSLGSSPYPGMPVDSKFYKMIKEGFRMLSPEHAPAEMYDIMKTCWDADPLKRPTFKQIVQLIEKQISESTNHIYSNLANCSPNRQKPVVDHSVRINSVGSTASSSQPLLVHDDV

[30] = target: Dual specificity protein kinase CLK1 (Homo sapiens) (UniProt P49759); experiment: Inhibition of human CLK1 at 0.1 uM relative to control
[31] = AUC (0 to infinity) in ICR mouse at 10 mg/kg, po; assay type: ADME, organism-based; set-up: dose 10 mg/kg, time infinity, route oral; settings: in vivo
[32] = target: Bcr/Abl fusion protein (Homo sapiens) (UniProt P00519+P11274); settings: K562
Description: Inhibition of wild type BCR/ABL in FLT3 deficient human K562 cells assessed as cell growth inhibition after 72 hrs by MTS assay

[33] = target: Insulin-like growth factor 1 receptor (Homo sapiens) (UniProt P08069); experiment: Inhibition of human IGF1R at 0.1 uM relative to control
[34] = target: Ribosomal protein S6 kinase beta-1 (Homo sapiens) (UniProt P23443); experiment: Inhibition of human RPS6KB1 at 0.1 uM relative to control
[35] = Half life in Sprague-Dawley rat at 10 mg/kg, po; assay type: ADME, organism-based; settings: in vivo
[36] = target: Tyrosine-protein kinase Lyn (Homo sapiens) (UniProt P07948); experiment: Inhibition of human LYNA at 0.1 uM relative to control
[37] = target: Proto-oncogene tyrosine-protein kinase receptor Ret (Homo sapiens) (UniProt P07949); experiment: Inhibition of human RET at 0.1 uM relative to control

Molecule `CCc1cc(NC(=O)Nc2ccc(-c3cnc(Nc4cc(N5CCN(CC)CC5)nc(C)n4)s3)cc2)no1` has an inhibition [1] of 44%, a GI50 [2] of 2 nM and an inhibition [3] of 16%. For the same molecule, the clearance [4] was 31.6 mL/min/kg, the inhibition [5] was 21% and the inhibition [6] was 82%. It also gave a clearance [7] of 82 mL/min/kg, an inhibition [8] of 14% and an inhibition [9] of 0%. For the same molecule, the inhibition [10] was -8%, the inhibition [11] was 0% and the inhibition [12] was 94%. It also gave an inhibition [13] of 2%, an inhibition [14] of 41% and an inhibition [15] of -3%. It also gave a bioavailability [16] of 35%, a Vd [17] of 21 L/kg and an IC50 [18] of 10 nM. The GI50 [19] was 4 nM, the inhibition [20] was -7% and the inhibition in vivo at 10 mg/kg/day (animal or person) was 68%. For the same molecule, the inhibition [21] was 85%, the GI50 [22] was 70 nM and the Cmax [23] was 122 ng/mL. It also gave an inhibition [24] of 92%, an inhibition [25] of 46% and an inhibition [26] of 44%. For the same molecule, the inhibition [27] was -3%, the inhibition [28] was 10% and the inhibition [29] was 64%. For the same molecule, the inhibition [30] was 5%, the AUC(0-inf) [31] was 942 ng·h/mL and the GI50 [32] was 190 nM. For the same molecule, the inhibition [33] was 16%, the inhibition [34] was 22% and the half-life [35] was 4.3 h. It also gave an inhibition [36] of 96% and an inhibition [37] of 95%.
